Results from US20100069502A1, “Assay” (priority 2006, published 2010).

Assays:
Assay type in all cases: cell-based
PP1 = PP1 phosphorylase phosphatase activity in HEK293 cell lysates; settings: 10 mM phenformin, 32P-labelled phosphorylase a, 4 mM okadaic acid
Protocol: (§1) A Levels of phosphorylation of AMPK at Thr172 in 4 untreated and 4 treated samples. Anti-PP5 TPR domain antibody is used as a loading control. Molecular weights (kDa) are indicated to the left of the panels. B PP1 phosphorylase phosphatase activity in treated and untreated HEK293 cell lysates using phosphorylase a as substrate, in the presence of 4 nM okadaic acid. Data are mean±SEM for four samples measured in triplicate. C PP2A phosphorylase phosphatase activity in treated and untreated HEK293 cell lysates using phosphorylase a as substrate, in the presence of 200 nM I-2. Data are mean±SEM for four samples measured in triplicate. […]
The activity of PP1 in response to phenformin was assessed using ^32P-labelled phosphorylase a as substrate with […] okadaic acid included in the reaction in order to inhibit the activity of PP2A and EGTA (0.1-2 mM) to inhibit metal ion activated protein phosphatases. No change in PP1 phosphorylase phosphatase activity could be detected between unstimulated and 10 mM-phenformin stimulated cell lysates (FIG. 1B).

PP5 = PP5 levels by immunoblotting in HEK293 cell lysates; settings: HEK293 cells, 10 mM phenformin, antibody against TPR domains
Protocol: (§2) To study the effects of biguanide on the activity of protein phosphatases, HEK293 cell lysates either untreated or treated with biguanide (10 mM phenformin in this example—as described above) were either immunoblotted or assayed for specific protein phosphatase activity by using combinations of phosphatase inhibitors and activators, as well as different phosphorylated substrates.
Since the activity of PP5 in HEK293 cells is low, the levels of PP5 were assessed by immunoblotting using an antibody against the TPR domains of the protein.

PPM1F = target: T1, PPM1F (Homo sapiens, UniProt P49593); experiment: Activity of PPM phosphatase immunoprecipitated from HEK293 cell lysates, casein substrate
T1 construct: endogenous in cells; host or cells: HEK293
T1 sequence (P49593 1-454): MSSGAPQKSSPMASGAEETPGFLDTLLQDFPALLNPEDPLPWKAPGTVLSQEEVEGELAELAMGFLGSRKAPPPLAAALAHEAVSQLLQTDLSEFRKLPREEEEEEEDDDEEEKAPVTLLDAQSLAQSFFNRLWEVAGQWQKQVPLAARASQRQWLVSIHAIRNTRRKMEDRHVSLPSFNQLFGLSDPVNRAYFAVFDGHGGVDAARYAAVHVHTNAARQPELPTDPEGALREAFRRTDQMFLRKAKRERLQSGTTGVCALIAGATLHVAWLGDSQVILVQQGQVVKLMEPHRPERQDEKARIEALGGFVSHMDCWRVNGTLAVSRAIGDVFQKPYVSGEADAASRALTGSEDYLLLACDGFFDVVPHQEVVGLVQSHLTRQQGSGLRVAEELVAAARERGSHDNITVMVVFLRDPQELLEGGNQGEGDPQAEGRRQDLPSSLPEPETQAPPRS
Protocol: PPM1F is immunopelleted with antibodies raised the amino acid sequence […] and the phosphatase activity in the immunopellet is measured in a protein phosphatase assay using 32P-labelled casein as substrate in the presence of 10 mM Mg2+ or Mn2+ ions and 5 μM okadaic acid.
(§3) PPM phosphatase activity in HEK293 cell lysates either untreated or treated with 10 mM phenformin for 1 hour. Individual isoforms were immunoprecipitated from control or phenformin-treated cell lysates and activity measured using ^32P labelled casein as substrate in the presence of 10 mM MgAc and […] acid. Data are mean activities for assays performed in triplicate.
(§4) To determine with greater certainty which PPM phosphatases are affected by biguanide, the PPM phosphatase activity associated with each of the PPM enzymes was assessed. In this example, the biguanides are metformin and phenformin. […] No change could be detected in the PPM phosphatases associated with PPM1A1, PPM1B1, PPM1B2, PPM1D, PPM1G, ILKAP, Nerpp, PDPC1 or PDPC2. […] Following immunoprecipitation and immunoblotting of the PPM1E immunoprecipitate from untreated HEK293 cells, no signal could be detected using an antibody directed against PPM1E.

PP2A = PP2A phosphorylase phosphatase activity in HEK293 cell lysates; settings: 10 mM phenformin, 32P labelled phosphorylase a, 200 nM I-2
Protocol: as §1
The activity of PP2A in response to phenformin was also assessed using ^32P labelled phosphorylase a as substrate, but for this assay 200 nM I-2 and EGTA (0.1-2 mM) to inhibit metal ion activated protein phosphatases was included to inhibit PP1. No change in the PP2A phosphorylase phosphatase activity could be detected between unstimulated and 10 mM-phenformin stimulated cell lysates (FIG. 1C).

PPM1E = target: T2, PPM1E (Homo sapiens, UniProt Q8WY54); experiment: Activity of PPM phosphatase immunoprecipitated from HEK293 cell lysates, casein substrate; settings: HEK293 cells, 2 mM metformin for 10 minutes prior to lysis
T2 construct: The PPM1A1 and PPM1E isoforms were immunoprecipitated in triplicate from untreated or metformin-treated HEK293 cell lysates; endogenous in cells; host or cells: HEK293
T2 sequence (Q8WY54 1-755): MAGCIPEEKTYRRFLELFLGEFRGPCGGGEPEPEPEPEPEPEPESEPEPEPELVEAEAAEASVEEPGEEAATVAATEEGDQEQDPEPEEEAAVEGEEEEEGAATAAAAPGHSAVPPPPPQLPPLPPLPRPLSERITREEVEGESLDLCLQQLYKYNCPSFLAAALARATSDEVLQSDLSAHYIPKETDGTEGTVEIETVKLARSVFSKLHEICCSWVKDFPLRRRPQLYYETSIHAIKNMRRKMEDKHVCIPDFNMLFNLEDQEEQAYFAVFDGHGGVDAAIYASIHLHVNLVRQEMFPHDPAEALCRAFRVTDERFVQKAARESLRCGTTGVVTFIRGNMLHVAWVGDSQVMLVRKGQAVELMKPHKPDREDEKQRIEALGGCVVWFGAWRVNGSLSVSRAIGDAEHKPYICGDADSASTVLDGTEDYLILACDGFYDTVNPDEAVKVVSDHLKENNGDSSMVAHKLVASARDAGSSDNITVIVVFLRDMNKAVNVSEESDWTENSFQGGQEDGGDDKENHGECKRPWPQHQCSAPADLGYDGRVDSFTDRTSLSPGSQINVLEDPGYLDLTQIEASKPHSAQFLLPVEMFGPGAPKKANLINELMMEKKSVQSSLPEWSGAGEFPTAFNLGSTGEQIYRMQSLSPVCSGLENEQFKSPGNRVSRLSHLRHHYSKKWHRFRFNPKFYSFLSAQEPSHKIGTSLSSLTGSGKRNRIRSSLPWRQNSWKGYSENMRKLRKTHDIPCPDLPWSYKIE
Protocol: PPM1E is immunopelleted with antibodies raised the amino acid sequence […] and the phosphatase activity in the immunopellet is measured in a protein phosphatase assay using 32P-labelled casein as substrate in the presence of 10 mM Mg2+ or Mn2+ ions and 5 μM okadaic acid.
as §3
as §4, with “assessed.” for “assessed. In this example, the biguanides are metformin and phenformin.”
HEK293 cells were treated with 2 mM metformin for 10 minutes prior to lysis. […] Control immunoprecipitations were preformed in triplicate for each lysate using pre-immune antibody and subtracted from the activity calculated for the PPM phosphatase immunoprecipitations. […]

PPM phosphatase [1] = experiment: Mg2+ dependent, okadaic acid resistant casein phosphatase (PPM phosphatase) activity in HeLa cell lysates; settings: HeLa cells, 2 mM metformin
Protocol: (§5) A PPM phosphatase activity in treated and untreated HEK293 cell lysates using casein as substrate in the presence of 10 mM MgAc and 5 μM okadaic acid. Data are mean±SEM with five independent samples measured in duplicate. (p<0.001). B PPM phosphatase activity in treated and untreated HeLa cell lysates using casein as substrate in the presence of 10 mM MgAc and 5 μM okadaic acid. Data are mean±SEM with four independent samples measured in duplicate. (p<0.001).
(§6) The activity of PP2C (PPM1) and related members of the PPM family was assessed using ^32P-labelled casein as substrate with 5 μM okadaic acid included in the reaction to inhibit PP2A, and 10 mM magnesium acetate, which is known to be required for the activity of PP2C (Ingebritsen and Cohen, 1983 Science vol 221, pp 331-338; Ingebritsen et al., 1983 Eur J Biochem vol 132, pp 263-274).
To test whether phenformin is able to have similar effects in this cell line, PPM phosphatase activity in HeLa cells either untreated or treated with 10 mM phenformin was assessed. Again, a ˜20% decrease in PPM phosphatase activity could be observed in cells treated with phenformin (FIG. 2B). In this experiment, the activity of many PP2C isoforms is measured, and the 20% decrease observed may represent a more severe decrease in activity of only one such isoform.

PPM phosphatase [2] = experiment: Mg2+ dependent, okadaic acid resistant casein phosphatase (PPM phosphatase) activity in HEK293 cell lysates; settings: HEK293 cells, 2 mM metformin
Protocol: as §5, §2, §6

[H]/N=C(/N)N/C(=N/[H])NCCc1ccccc1 [phenformin, phenylethylbiguanide] was tested, and the “PP1 phosphorylase phosphatase activity” value (PP1) was “no effect”, the “levels of PP5” value (PP5) was “no effect” and the “activity of immunoprecipitated PPM1F, % of the levels of untreated cells” value (PPM1F; HEK293 cells treated with phenformin) was roughly 60%. The “decrease in activity of immunoprecipitated PPM1F” value (PPM1F; HEK293 cells, 10 mM phenformin) was roughly 40% and the “PP2A phosphorylase phosphatase activity” value (PP2A) was “no effect”.
CN(C)C(=N)N=C(N)N [metformin, 1-(diaminomethylidene)-3,3-dimethyl-guanidine] was tested, and the “activity of immunoprecipitated PPM1E” value (PPM1E) was “almost completely ablated”, the “activity of immunoprecipitated PPM1E” value (PPM1E; listed as Metformin) was “Substantial specific knockdown” and the “decrease in PPM phosphatase activity” value (PPM phosphatase [1]) was 20%. For the same molecule, the “decrease in PPM phosphatase activity” value (PPM phosphatase [2]) was 20%.
